Calls of active or inactive are those of the source. The rule behind the calls is not given here.
Columns and labels:
[1] = target: T1, Beta-2 adrenergic receptor (Cavia porcellus, UniProt Q8K4Z4)
Description: Agonist activity at adrenergic beta-2 receptor in guinea pig tracheal rings assessed as myorelaxing activity on carbachol-induced contraction in presence of 1H-[1,2,4]oxadiazolo-[4,3-a]quinoxalin-1-one

[2] = target: T1, Beta-2 adrenergic receptor; remark: listed apart in the source
[3] = target: T2, Beta-2 adrenergic receptor (Rattus norvegicus, UniProt P10608); assay: Vasodilating activity against phenylephrine-induced contractions in rat thoracic aorta
[4] = system: Liver microsomes; assay: Antioxidant activity in rat hepatic microsomal membrane
[5] = Effect on nitric oxide release in phosphate buffer at pH 7.4 in presence of cysteine at 100 uM; type: functional
[6] = target: T2, Beta-2 adrenergic receptor
Description: Vasodilating activity against phenylephrine-induced contraction in rat thoracic aorta in presence of 1H-[1,2,4]oxadiazolo-[4,3-a]quinoxalin-1-one

[7] = target: Beta-2 adrenergic receptor (Rattus norvegicus) (UniProt P10608); type: functional, tissue-based; details: Thoracic aorta, 100 uM
Sequence of Beta-2 adrenergic receptor (Rattus norvegicus) (P10608 whole entry, looked up): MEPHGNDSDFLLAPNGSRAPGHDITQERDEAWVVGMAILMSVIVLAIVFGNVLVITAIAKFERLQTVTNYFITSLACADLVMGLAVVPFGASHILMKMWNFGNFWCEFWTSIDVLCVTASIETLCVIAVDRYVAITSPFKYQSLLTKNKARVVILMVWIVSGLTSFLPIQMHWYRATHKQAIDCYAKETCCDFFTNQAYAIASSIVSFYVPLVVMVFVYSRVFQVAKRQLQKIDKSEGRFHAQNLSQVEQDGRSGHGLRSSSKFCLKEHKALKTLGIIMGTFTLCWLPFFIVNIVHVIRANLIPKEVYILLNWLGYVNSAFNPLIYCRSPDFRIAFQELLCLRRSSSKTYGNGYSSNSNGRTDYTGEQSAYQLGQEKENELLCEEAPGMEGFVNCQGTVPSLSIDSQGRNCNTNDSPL

[8] = target: Beta-2 adrenergic receptor (Cavia porcellus) (UniProt Q8K4Z4); assay: Agonist activity at adrenergic beta-2 receptor in guinea pig tracheal rings assessed as myorelaxing activity on carbachol-induced contraction at 100 uM; type: functional; design: scale not given: the % may be the effect or the level left
Sequence of Beta-2 adrenergic receptor (Cavia porcellus) (Q8K4Z4 whole entry, looked up): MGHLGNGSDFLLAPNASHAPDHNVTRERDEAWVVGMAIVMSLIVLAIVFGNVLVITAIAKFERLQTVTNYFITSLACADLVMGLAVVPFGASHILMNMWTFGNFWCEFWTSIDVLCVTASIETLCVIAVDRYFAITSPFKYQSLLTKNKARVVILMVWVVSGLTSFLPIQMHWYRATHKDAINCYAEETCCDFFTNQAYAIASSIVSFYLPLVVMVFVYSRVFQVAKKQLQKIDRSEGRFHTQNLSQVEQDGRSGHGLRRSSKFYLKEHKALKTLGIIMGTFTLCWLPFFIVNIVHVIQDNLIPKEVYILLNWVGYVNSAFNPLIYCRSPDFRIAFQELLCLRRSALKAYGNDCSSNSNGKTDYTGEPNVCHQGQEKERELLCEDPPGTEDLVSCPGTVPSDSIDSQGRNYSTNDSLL

[9] = target: Beta-2 adrenergic receptor (Rattus norvegicus) (UniProt P10608); assay: Vasodilating activity in rat thoracic aorta on phenylephrine-induced contraction at 100 uM; type: functional, tissue-based
[10] = system: Liver microsomes; assay: Antioxidant activity in rat hepatic microsomal membrane at 1 mM; type: functional; details: Microsome
[11] = target: T1, Beta-2 adrenergic receptor; remark: listed apart in the source

T2 sequence (P10608 whole entry): as the sequence (P10608 whole entry, looked up) above
T1 sequence (Q8K4Z4 whole entry): as the sequence (Q8K4Z4 whole entry, looked up) above

Row | Structure (SMILES) | EC50 [2] | EC50 [3] | IC50 [4] | Activity [5] | also measured
1 | Cc1c(COc2ccc(CC(C)NCC(O)c3cc(O)cc(O)c3)cc2)no[n+]1[O-] (stereo in doubt; 36a) [listing 1 of 2 here] | 220 nM | 18000 nM | 298000 nM | – | EC50 [1]: 230 nM
2 | CC(Cc1ccc(Oc2no[n+]([O-])c2S(=O)(=O)c2ccccc2)cc1)NCC(O)c1cc(O)cc(O)c1 (stereo in doubt; 15a) [listing 1 of 2 here] | – | – | – | 28.4% | –
3 | Cc1nonc1COc1ccc(CC(C)NCC(O)c2cc(O)cc(O)c2)cc1 (stereo in doubt; 37a) | 110 nM | – | 123000 nM | – | –
4 | Cc1nonc1COc1ccc(CC(C)NCC(O)c2cc(O)cc(O)c2)cc1 (stereo in doubt; 37b) | 2200 nM | – | – | – | –
5 | Cc1c(COc2ccc(CC(C)NCC(O)c3cc(O)cc(O)c3)cc2)no[n+]1[O-] (stereo in doubt; 36b) [listing 1 of 2 here] | 1300 nM | 20000 nM | – | – | EC50 [1]: 1200 nM
6 | CC(Cc1ccc(Oc2no[n+]([O-])c2S(=O)(=O)c2ccccc2)cc1)NCC(O)c1cc(O)cc(O)c1 (stereo in doubt; 15a) [listing 2 of 2 here] | 18 nM | 14 nM | 13500 nM | – | EC50 [1]: 17 nM; EC50 [6]: 860 nM
7 | CC(Cc1ccc(Oc2no[n+]([O-])c2S(=O)(=O)c2ccccc2)cc1)NCC(O)c1cc(O)cc(O)c1 (stereo in doubt; 15b) [listing 1 of 2 here] | 250 nM | 14 nM | – | – | EC50 [1]: 440 nM; EC50 [6]: 1300 nM
8 | CC(Cc1ccc(OCc2no[n+]([O-])c2C(N)=O)cc1)NCC(O)c1cc(O)cc(O)c1 (stereo in doubt; 34a) [listing 1 of 2 here] | 110 nM | 1200 nM | 156000 nM | – | EC50 [1]: 130 nM; EC50 [6]: 14000 nM
9 | CCOc1no[n+]([O-])c1S(=O)(=O)c1ccccc1 | 2300 nM | 12 nM | 110000 nM | 36% | EC50 [6]: 1200 nM
10 | CC(Cc1ccc(OCc2no[n+]([O-])c2C(N)=O)cc1)NCC(O)c1cc(O)cc(O)c1 (racemic) [listing 1 of 2 here] | 1000 nM | 1200 nM | – | – | EC50 [1]: 1100 nM; EC50 [6]: 16000 nM
11 | CC(Cc1ccc(OCc2no[n+]([O-])c2C(N)=O)cc1)NCC(O)c1cc(O)cc(O)c1 (racemic) [listing 2 of 2 here] | – | – | – | 10.4% | –
12 | Cc1c(COc2ccc(CC(C)NCC(O)c3cc(O)cc(O)c3)cc2)no[n+]1[O-] (stereo in doubt; 36a) [listing 2 of 2 here] | – | – | – | < 1% | Activity [7]: < 50%
13 | Cc1c(COc2ccc(CC(C)NCC(O)c3cc(O)cc(O)c3)cc2)no[n+]1[O-] (stereo in doubt; 36b) [listing 2 of 2 here] | – | – | – | < 1% | Activity [7]: < 50%
14 | Cc1c(CO)no[n+]1[O-] | – | – | – | < 1% | Activity [8]: < 50%; Activity [9]: < 50%; Activity [10]: inactive
15 | CC(Cc1ccc(OCc2nonc2C(N)=O)cc1)NCC(O)c1cc(O)cc(O)c1 (stereo in doubt; 35a) | 29 nM | – | 286000 nM | – | –
16 | CC(Cc1ccc(Oc2nonc2S(=O)(=O)c2ccccc2)cc1)NCC(O)c1cc(O)cc(O)c1 (stereo in doubt; 16a) | 39 nM | – | 57000 nM | – | –
17 | CC(Cc1ccc(OCc2nonc2C(N)=O)cc1)NCC(O)c1cc(O)cc(O)c1 (stereo in doubt; 35b) | 170 nM | – | – | – | –
18 | CC(Cc1ccc(OCc2no[n+]([O-])c2C(N)=O)cc1)NCC(O)c1cc(O)cc(O)c1 (stereo in doubt; 34a) [listing 2 of 2 here] | – | – | – | 11.5% | –
19 | CC(Cc1ccc(Oc2nonc2S(=O)(=O)c2ccccc2)cc1)NCC(O)c1cc(O)cc(O)c1 (stereo in doubt; 16b) | – | – | – | – | EC50 [11]: 39 nM
20 | CC(Cc1ccc(Oc2no[n+]([O-])c2S(=O)(=O)c2ccccc2)cc1)NCC(O)c1cc(O)cc(O)c1 (stereo in doubt; 15b) [listing 2 of 2 here] | – | – | – | 27.5% | –
21 | NC(=O)c1c(CO)no[n+]1[O-] | 86000 nM | 6300 nM | – | 12% | Activity [7]: < 50%; Activity [10]: inactive

From ChEMBL document CHEMBL1148806 (J Med Chem, 2007)
